{
  "source": "patent US20020192671A1",
  "about": "“Method and system for predicting the biological activity, including toxicology and toxicity, of substances” (priority 2001, published 2002)",
  "origin": "cited, not measured here",
  "key": {"[1]": {"system": "rodents"}, "[2]": {"system": "P450 4F"}, "[3]": {"system": "cytochrome P450 4A"}},
  "data": [
    {"smiles": "CC(=O)Nc1ccc(O)cc1", "note": "[APAP, acetaminophen]", "values": [
      {"measurement": "toxic effect at high non-therapeutic doses", "result": "hepatic and renal failure"}
    ]},
    {"smiles": "CCOC(=O)C(C)(C)Oc1ccc(Cl)cc1", "note": "[Clofibrate]", "values": [
      {"measurement": "effect of chronic treatment in rodents", "setting": "[1]", "result": "hepatomegaly, an increase in hepatic peroxisomes"},
      {"measurement": "effect on P450 4F levels", "setting": "[2]", "result": "reduce the levels of P450 4F"},
      {"measurement": "effect on cytochrome P450 4A levels", "setting": "[3]", "result": "increase levels of cytochrome P450 4A"}
    ]}
  ]
}
